Laboratory results as given in patent US20120039917A1, “IMMUNO[…]” (priority 2008, published 2012).
Values joined by “and” are separate entries in the source; they are usually repeats but may differ in a detail not shown here. Identical values can stand only once.

Columns and labels:
Type in all cases: cell-based, human
proliferating T cells = assay: Cell viability measured by Trypan blue exclusion; conditions: 10 μM PXD
Description: (§1) Immediately prior to experiments, frozen PBMC were thawed, centrifuged at 1400 rpm in a Multifuge 3 s (Heraeus) for 4 min, washed in RPMI+10% FCS and resuspended in T cell medium (RPMI+10% FCS+10 μM 2-mercaptoethanol (Sigma), 1×glutamine, 1×non-essential amino acids (Gibco)) at 2×10^6 cells/mL. Cells (2×10^5) were activated by adding 10 μg/mL anti-CD3 and 5 μg/mL anti-CD28 and 20 U/mL IL-2 per well. Cells were incubated at 37° C. in a humidified incubator maintained at 5% CO2 for 4 to 5 days until large numbers of large spherical aggregates or “bursts” of lymphocytes were observed. Activated proliferating T cells were pooled from the wells for further experiments. Resting T cells were incubated for the same length of time but in the presence of 20 U/mL IL-2 only.
(§2) Proliferating and resting PBMCs were centrifuged at 1400 rpm in a Multifuge 3 s (Heraeus) for 4 min at room temperature, resuspended in fresh T cell medium in 96 U-well plates (200 μL per well at densities of 2×10^6 cells/mL) in the presence of PXD or 0.1% DMSO and incubated in a 5% CO2, 37° C. humidified incubator. Viable cells, as determined by Trypan blue exclusion, were counted in a Neubauer haemocytometer every 24 h for several days.

resting T cells [1] = assay: Cell viability measured by Trypan blue exclusion; conditions: 10 μM PXD
Description: as §1, §2

[2] = Apoptosis/viability by Annexin V/propidium iodide staining; conditions: human, resting T cells from PBMC; resting T cells, 10 μM PXD for 24 h; read-out: [% viable blasts after PXD exposure]/[% viable blasts after 0.1% DMSO exposure]
Description: as §1
(§3) Cells were centrifuged at 1400 rpm in a Multifuge 3 s (Heraeus) for 4 min at room temperature, washed in phosphate buffered saline solution, pH 7.3 (PBS) and resuspended in Annexin V binding buffer. Small aliquots (0.5-1×10^6 cells) were transferred to 1.5 mL tubes and spun at 1400 rpm in a Multifuge 3 s (Heraeus) for 4 min. […] Staining was analyzed by flow cytometry using a Becton Dickinson Canto II FACS analyser using FlowJo (TreeStar) software.
(§4) The extent of apoptosis in resting and proliferating T cells was determined after 24 h exposure to 10 μM PXD (FIG. 2) by AV/PI staining. […]

resting T cells [3] = assay: as above; conditions: 10 μM PXD for 24 h
Description: as §1, §3, §4

unstimulated T cells = assay: HLA-mismatched MLR after transient exposure of unstimulated T cells to PXD; conditions: 10 μM PXD 24 h, washed, then MLR, FACS 8 days later; control MLR 62.6%
Description: Mixed lymphocyte reactions were established using unrelated, HLA-mismatched healthy donor blood samples as donor/recipient pairs. Stimulator PBMC were γ-irradiated with 30 Gy as described previously (Zenhausen et al., 2007). Responder PBMC were washed twice in PBS, 5,6-carboxy-succinimidyl-fluorescein-ester (CSFE)-labelled (1.25 μM, Sigma) at room temperature for 5 minutes, and washed twice in PBS/10% FCS. Two hundred thousand stimulator and responder cells were added per well at a 1:1 ratio in a 96 U-well plate in T cell medium. Stimulator and responder cells were also plated alone, and all cells were cultured in a 5% CO2, 37° C. humidified incubator. Viability, CFSE fluorescence and cell surface antigen expression were determined by flow cytometry. Cells were washed twice in FACS buffer (PBS, 2% FCS), and resuspended in 50 μL/5×10^5 cells and analysed on a Becton Dickinson LSRII FACS analyser using FlowJo (TreeStar) software.
The inventors next determined whether a transient exposure to PXD affected the ability of unstimulated T cells to respond normally to foreign antigen. Unstimulated T cells were incubated with 10 μM PXD for 24 h, washed twice and stimulated by adding HLA-mismatched γ-irradiated stimulator cells.

primary ALL blasts = assay: Viability of leukemic blasts from bone marrow samples, AV/PI staining
Description: (§5) FIG. 6. Sensitivity of different cell types to PXD. Different cell types were incubated with 10 μM PXD for 24 h and viability was determined by AV/PI staining and reported as [% viable blasts after PXD exposure]/[% viable blasts after 0.1% DMSO exposure]. Percentage values are as follows: AML-derived HL60: 16±5 and HL60p°: 54±6, ALL-derived MOLT-4: 44±4, MM-derived U226: 59±6 and RPMI 8226: 12±4, primary AML blasts: 64±5, primary ALL blasts: 23±4, normal BM: 89±5, proliferating T cells: 69±4, resting T cells: 98±6. Results from cell lines are presented as the average±SEM of at least 3 separate experiments, results from bone marrow samples are presented as the average±SD of single experiments performed in duplicate.
(§6) Bone marrow samples from AML (n=22) and ALL (n=8) patients, containing more than 80% blasts, were selected from the tissue bank. Bone marrow samples were thawed, centrifuged at 1400 rpm in a Multifuge 3 s (Heraeus) for 4 min, washed twice in RPMI and resuspended in RPMI+10% FCS. Aliquots were incubated for 24 h in the presence of 0.1% DMSO (control) or 10 μM PXD and examined for morphology and viability. […] was determined by AV/PI staining as [% viable blasts after PXD treatment]/[% viable blasts in control sample].
(§7) Cells were centrifuged at 1400 rpm in a Multifuge 3 s (Heraeus) for 4 min at room temperature, washed in phosphate buffered saline solution, pH 7.3 (PBS) and resuspended in Annexin V binding buffer. Small aliquots (0.5-1×10^6 cells) were transferred to 1.5 mL tubes and spun at 1400 rpm in a Multifuge 3 s (Heraeus) for 4 min. Most supernatant was removed and 5 μL PI and 5 μL FITC-labelled AV was added to the wet pellets which were vortexed. After 30 min in the dark on ice, 500 μl of AV binding buffer was added, the cells were centrifuged for 2 min at 1400 rpm, washed once with AV binding buffer and resuspended in 300 μL of AV binding buffer in FACS tubes. Staining was analyzed by flow cytometry using a Becton Dickinson Canto II FACS analyser using FlowJo (TreeStar) software.

primary AML blasts = assay: as above
Description: as §5, §6, §7

Oc1ccc(C2=Cc3ccc(O)cc3OC2)cc1 [PXD, Isoflav-3-en-4′,7-diol]
viability (Trypan blue exclusion) (proliferating T cells): severely compromised
viability (Trypan blue exclusion) (resting T cells [1]): remain viable
viability at 24 h, 10 μM [2]: 98 ± 6%
percentage of viable resting T cells (AV/PI) (resting T cells [3]): unaltered
CD3+CFSEloAV− population after transient exposure (unstimulated T cells): 56.2%
viability at 10 µM (primary ALL blasts; Homo sapiens, 24 h, primary ALL blasts (average), 10 μM PXD for 24 h, read-out: [% viable blasts after PXD exposure]/[% viable blasts after 0.1% DMSO exposure]): 23 ± 4%
% Viable Blasts (primary ALL blasts; individual ALL patient bone marrow samples, 10 μM PXD 24 h, relative to 0.1% DMSO control): 25% and 29% and 37% and 40% and 7% and 14% and 16% and 19%
viability at 10 µM (primary AML blasts; Homo sapiens, 24 h, primary AML blasts (average), 10 μM PXD for 24 h, read-out: [% viable blasts after PXD exposure]/[% viable blasts after 0.1% DMSO exposure]): 64 ± 5%
% Viable Blasts (primary AML blasts; individual AML patient bone marrow samples, 10 μM PXD 24 h, relative to 0.1% DMSO control): 23% and 32% and 36% and 39% and 44% and 49% and 55% and 57% and 58% and 62% and 67% and 71% and 75% and 88% and 92% and 95% and 96% and 97% and 99% and 20%
